We go through three compounds from patent US20190161451A1, “HERBICIDAL PYRIMIDINE COMPOUNDS” (BASF SE, priority 2016, published 2019).

Each structure is given as a SMILES string.

One assay concerns SETFA. In words: greenhouse experiment, pre-emergence treatment. The settings on record: pre-emergence method, application rate 1000 g/ha, scale from 0 to 100. The class given is in vivo, Setaria faberi Herrm. The text has this: (§1) The culture containers used were plastic flowerpots containing loamy sand with approximately 3.0% of humus as the substrate. The seeds of the test plants were sown separately for each species.
(§2) For the pre-emergence treatment, the active ingredients, which had been suspended or emulsified in water, were applied directly after sowing by means of finely distributing nozzles.
(§3) The containers were irrigated gently to promote germination and growth and subsequently covered with transparent plastic hoods until the plants had rooted. This cover caused uniform germination of the test plants, unless this had been impaired by the active ingredients.
(§4) Depending on the species, the plants were kept at 10-25° C. or 20-35° C., respectively.
(§5) The test period extended over 2 to 4 weeks. During this time, the plants were tended, and their response to the individual treatments was evaluated.
(§6) Evaluation was carried out using a scale from 0 to 100. 100 means no emergence of the plants, or complete destruction of at least the aerial moieties, and 0 means no damage, or normal course of growth. A good herbicidal activity is given at values of at least 70 and a very good herbicidal activity is given at values of at least 85.
(§7) The plants used in the greenhouse experiments were of the following species: […]

The test system of another assay is ALOMY. In words: greenhouse experiment, post-emergence treatment. The assay is classed as in vivo, Alopecurus myosuroides. To be noted: post-emergence method, application rate 1000 g/ha, scale from 0 to 100.
Source text: as §1
(§8) For the post-emergence treatment, the test plants were first grown to a height of 3 to 15 cm, depending on the plant habit, and only then treated with the active ingredients which had been suspended or emulsified in water. For this purpose, the test plants were either sown directly and grown in the same containers, or they were first grown separately as seedlings and transplanted into the test containers a few days prior to treatment.
as §4, §5, §6, §7

The next assay deals with AVEFA. In words: greenhouse experiment, post-emergence treatment. The assay is classed as in vivo, Avena fatua. The settings on record: post-emergence method, application rate 1000 g/ha, scale from 0 to 100.
Source text: as §1, §8, §4, §5, §6, §7

For a further assay, the system named is ECHCG. In words: greenhouse experiment, pre-emergence treatment. The class given is in vivo, Echinocloa crus-galli. The settings on record: pre-emergence method, application rate 1000 g/ha, scale from 0 to 100.
Source text: as §1, §2, §3, §4, §5, §6, §7

The test system of another assay is APESV. In words: greenhouse experiment, pre-emergence treatment. The assay is classed as in vivo, Apera spica-venti. The settings on record: pre-emergence method, application rate 1000 g/ha, scale from 0 to 100.
Source text: as §1, §2, §3, §4, §5, §6, §7

Assay [1] deals with AMARE. In words: greenhouse experiment, post-emergence treatment. The class given is in vivo, Amaranthus retroflexus. The settings on record: post-emergence method, application rate 1000 g/ha, scale from 0 to 100.
Source text: as §1, §8, §4, §5, §6, §7

Assay [2] concerns AMARE. In words: greenhouse experiment, pre-emergence treatment. The assay is classed as in vivo, Amaranthus retroflexus. To be noted: pre-emergence method, application rate 1000 g/ha, scale from 0 to 100.
Source text: as §1, §2, §3, §4, §5, §6, §7

As to `COC(=O)c1nc(C2CC2)ncc1-c1ccc2ccccc2c1Cl` [example 26], the “herbicidal activity against SETFA” value in the assay on SETFA was “very good (a very good herbicidal activity is given at values of at least 85)”.
`O=C(O)c1nc(C2CC2)ncc1-c1c(Cl)ccc2c1OCO2` [example 14]: the “herbicidal activity against ALOMY” value with ALOMY was “good (A good herbicidal activity is given at values of at least 70)”. The “herbicidal activity against AVEFA” value in the assay on AVEFA was “good (A good herbicidal activity is given at values of at least 70)”. Moreover, the “herbicidal activity against ECHCG” value in the assay with ECHCG is recorded as “very good (a very good herbicidal activity is given at values of at least 85)”. Moreover, in the assay on APESV, the “herbicidal activity against APESV” value is listed as “very good (a very good herbicidal activity is given at values of at least 85)”.
With `O=C(O)c1nc(C2CC2)ncc1-c1cccc2c1OCO2` [example 6], the “herbicidal activity against ALOMY” value in the assay with ALOMY is “very good (a very good herbicidal activity is given at values of at least 85)”. Moreover, the “herbicidal activity against AMARE” value in the assay on AMARE [1] and with AMARE [2] was “very good (a very good herbicidal activity is given at values of at least 85)” throughout. The “herbicidal activity against ECHCG” value in the assay on ECHCG was “very good (a very good herbicidal activity is given at values of at least 85)”. Also, the “herbicidal activity against APESV” value with APESV is listed as “very good (a very good herbicidal activity is given at values of at least 85)”.
